Measured values taken from patent publication US11331354B2, “Fecal virome and therapeutic efficacy of fecal microbiota transplantation” (priority 2018, dated 2022).

Key:
[1] = system: Clostridium difficile infection; experiment: Randomised controlled trial substudy of FMT versus vancomycin in patients with CDI: clinical outcome (symptoms, stool C. difficile toxin); type: in vivo, human
Experimental: The current study was a substudy from a randomised controlled trial (RCT) of FMT versus vancomycin for patients with CDI. Consecutive CDI subjects enrolled into this RCT were invited to participate in a substudy of assessment of fecal microbiota. Patients were included if they had three or more loose or watery stools per day for at least two consecutive days, or eight or more soft or loose stools in 48 hours, and a positive stool test for C. difficile based on a two-step testing algorithm in the hospital, a positive GDH (glutamate dehydrogenase) screening test followed by a positive PCR test of C. difficile. A total of 24 subjects with CDI and 20 healthy household controls were recruited, and stool samples at baseline were obtained for analyses of virome and bacterial microbiome. Among them, 14 CDI subjects consented to have stool samples collected serially after treatment for microbiome analysis. Nine CDI subjects were treated with FMT and five were treated with vancomycin, and they were followed up at baseline and weeks 2, 4, 10 and 16 after treatment (FIG. 6). One patient FMT6 had recurrent CDI. This patient had five previous episodes of CDI prior to FMT. Subjects in the FMT group received 5 days of vancomycin followed by donor-infused stool via nasojejunal route, and those who had standard therapy (STD) received oral vancomycin 500 mg four times per day for 10 days. A computer-generated randomisation schedule was used to assign patients to the treatment sequences. All patients kept a stool diary and were questioned about stool frequency and consistency and medication use.
Treatment response was defined as an absence of diarrhoea or persistent diarrhoea that could be explained by other causes with a negative stool test for C. difficile toxin, while relapse was defined as diarrhoea with a positive stool test for C. difficile toxin. Treatment cure is defined as symptom resolution and a negative Clostridium difficile toxin in stool until the last follow-up (last follow-up was referred to as the last stool collection time point, as shown in FIG. 6). […] CDI recipients FMT8 and FMT9 shared the same donor, and this donor was termed ‘D8’. None of the patients had received antibiotics or proton pump inhibitors after FMT.
1. C. difficile infection was defined as diarrhea (≥3 soft, loose or watery stools per day for at least 2 consecutive days or ≥8 soft or loose stools in 48 hours) and a positive stool test for C. difficile toxin; and
Family members provided donor stool for subjects randomised to FMT arm. Cure after FMT or vancomycin therapy was defined as symptom resolution and negative Clostridium difficile toxin in stool at last follow-up by PCR assay. Relapse was defined as diarrhea with a positive stool test for C. difficile toxin.
In subjects who received FMT, a nasoduodenal tube was inserted with radiology guidance. Donor feces was diluted with 500 ml of sterile saline (0.9%), blended and the supernatant was strained with filter paper and poured in a sterile bottle. Within 6 hours after collection of feces by the donor, the solution was infused through a nasoduodenal tube (2 to 3 minutes per 50 ml). The tube was removed 30 minutes after the infusion, and patients were monitored for 2 hours. In subjects with received FMT, a minimum of 50 g of donor stool was collected on the same day of infusion and used within 6 hours of collection.

[2] = system: enteric virome (Caudovirales, Microviridae, Anelloviridae); experiment: Ultra-deep metagenomic sequencing of virus-like particle (VLP) preparations from stool: enteric virome abundance, diversity, richness, donor-derived contigs; type: in vivo, human
Experimental: VLPs were enriched from pulverised human stool, using a protocol according to previously described methods.^11 17 VLP DNAs were quantified (NanoDrop), and 1 μg of DNA was randomly fragmented by ultrasonication (Covaris) followed by library construction. The qualified libraries were amplified on cBot to generate the cluster on the flow cell (TruSeq PE Cluster Kit V3-cBot-HS, Illumina). The amplified libraries were sequenced paired end on the HiSeq 2000 System (TruSeq SBS KIT-HS V3, Illumina) (BGI, Shenzhen, China; standard 2×150 bp run), generating 20-60 million raw sequences (5-8 G raw data) per sample (sequence statistics in Table 3). Sequence processing and quality control, de novo contig assembly and taxonomy annotation were performed.
To estimate contig abundance and calculate sequence diversity, all reads were aligned to the resulting contigs using Bowtie2 (V. 2.2.9).^18 The mapped sequence counts, contig lengths and total sequence counts were used to normalise the sequence counts and represent the RPKM (reads per kilobase per million) of each sample to the contigs. These values were used to generate an operational taxonomic unit (OTU) relative abundance table, which was annotated with the taxonomy described above. The virome abundance data were imported into R 3.2.3. Richness, diversity and rarefaction calculation were performed using the estimated richness function of the phyloseq package. Diversity and richness plots were generated in GraphPad Prism (V. 6.0). Spearman correlations and their significance were calculated using the cor and cor.test functions in R, respectively. […] Correlation plots were generated using the corrplot R package. Heat maps were generated using the pheatmap R package. LEfSe linear discriminant analysis and multivariate analysis were performed.
To establish the presence of a species or a contig within a sample, the RPKM of a contig or a species is set to be >2 (a stringent criteria), so as to rule out the false-positive finding) for the contig or the species to be assured as present within a sample. In samples after FMT, if a contig or a species was not present in the recipient baseline sample but present in the corresponding donor baseline sample and in the recipient post-FMT sample, the contig or species was defined as ‘donor-derived’; if a contig or a species was not present in the corresponding donor baseline sample but detected both in the recipient baseline sample and in the recipient post-FMT sample, the contig or the species was defined as ‘recipient-exclusive’, if a contig or a species was present across the recipient baseline sample, the recipient post-FMT sample and the corresponding donor baseline sample, the contig or the species was defined as ‘donor recipient coexisted.’ To determine the abundance alteration of Caudovirales species after FMT, the species' relative abundance (RA) fold change was defined as fc=log 2(post-FMT last follow-up RA/pre-FMT baseline RA).
Approximately 200 mg of stool was suspended in 400 μl saline-magnesium buffer (0.1 M NaCl, 0.008 M MgSO4-7H2O, 0.002% gelatin, 0.05 M Tris pH7.5) by vortexing for 10 min. Stool suspensions were then cleared by centrifugation at 2,000×g to remove debris and cells. Clarified suspensions were passed through one […] followed by two […] filters to remove residual host and bacterial cells. […]

CN[C@H](CC(C)C)C(=O)N[C@H]1C(=O)N[C@@H](CC(N)=O)C(=O)N[C@H]2C(=O)N[C@H]3C(=O)N[C@H](C(=O)N[C@H](C(=O)O)c4cc(O)cc(O)c4-c4cc3ccc4O)[C@H](O)c3ccc(c(Cl)c3)Oc3cc2cc(c3O[C@@H]2O[C@H](CO)[C@@H](O)[C@H](O)[C@H]2O[C@H]2C[C@](C)(N)[C@H](O)[C@H](C)O2)Oc2ccc(cc2Cl)[C@H]1O [vancomycin]
subjects cured of CDI (responders) ([1]; median follow-up of 16 weeks, nine FMT subjects, five vancomycin patients): three of the five
Recurrence at week ([1]; subject STD1): at week 12
Outcome (till last follow-up) ([1]; subject STD1, severe CDI, follow-up 20 weeks): Recurrence
Recurrence at week ([1]; subject STD2): at week 7
Outcome (till last follow-up) ([1]; subject STD2, moderate CDI, follow-up 7 weeks): Recurrence
Outcome (till last follow-up) ([1]; subject STD3, severe CDI, follow-up 14 weeks): Cured
Outcome (till last follow-up) ([1]; subject STD4, severe CDI, follow-up 17 weeks): Cured
Outcome (till last follow-up) ([1]; subject STD5, moderate CDI, follow-up 26 weeks): Cured
virome structure over time ([2]; CDI subjects who did not respond to vancomycin): marked oscillation
virome structure over time ([2]; CDI subjects who responded to vancomycin): not significantly altered
change in Caudovirales abundance after treatment ([2]; stool of CDI subjects, pre- versus post-treatment): increased
Caudovirales diversity and richness as well as bacterial diversity and richness over the course of treatment ([2]; subjects who did not respond to vancomycin (STD1 and STD2)): substantial fluctuation
change in Caudovirales diversity or richness ([2]; subjects who responded to vancomycin (STD3, STD4, STD5)): no significant change
